These results are taken from ChEMBL document CHEMBL5696441 (Nat Chem Biol, 2011).

In assay [1] the target is Dual specificity mitogen-activated protein kinase kinase 2 (Homo sapiens) (UniProt P36507). Description: Inhibition of human MEK2 assessed as residual activity at 1 uM using RBER-IRStide as substrate in presence of 33P-ATP by ProQinase assay relative to control.
The target in assay [2] is Glycogen synthase kinase-3 alpha (Homo sapiens) (UniProt P49840). Description: Inhibition of GSK3alpha (unknown origin) assessed as remaining activity at 1 uM by Kinome scan method relative to control.
Sequence of Glycogen synthase kinase-3 alpha (Homo sapiens) (P49840 2-483 limits assumed): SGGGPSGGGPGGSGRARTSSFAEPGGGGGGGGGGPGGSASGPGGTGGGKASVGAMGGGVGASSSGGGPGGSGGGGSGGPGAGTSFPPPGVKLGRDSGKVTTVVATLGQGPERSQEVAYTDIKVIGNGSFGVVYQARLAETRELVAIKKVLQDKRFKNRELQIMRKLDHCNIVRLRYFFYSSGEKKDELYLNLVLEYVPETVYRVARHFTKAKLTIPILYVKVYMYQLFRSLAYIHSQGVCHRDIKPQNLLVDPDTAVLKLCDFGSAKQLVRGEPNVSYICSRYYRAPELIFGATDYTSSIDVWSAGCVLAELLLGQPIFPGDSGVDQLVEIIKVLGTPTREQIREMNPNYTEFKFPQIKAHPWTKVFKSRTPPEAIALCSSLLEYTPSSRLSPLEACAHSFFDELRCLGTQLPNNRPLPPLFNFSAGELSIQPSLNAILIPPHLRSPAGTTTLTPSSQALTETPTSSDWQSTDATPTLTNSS
For assay [3], the target named is Tyrosine-protein kinase Fgr (Homo sapiens) (UniProt P09769). The assay can be described thus: Inhibition of FGR (unknown origin) assessed as remaining activity at 1 uM by Kinome scan method relative to control.
Assay [4] concerns the target Serine/threonine-protein kinase Nek4 (Homo sapiens) (UniProt P51957). The assay can be described thus: Inhibition of human NEK4 assessed as residual activity at 1 uM using MBP as substrate in presence of 33P-ATP by ProQinase assay relative to control.
Assay [5] deals with Dual specificity tyrosine-phosphorylation-regulated kinase 1A (Homo sapiens) (UniProt Q13627). The assay can be described thus: Inhibition of human DYRK1A assessed as residual activity at 1 uM using RBER-CHKtide as substrate in presence of 33P-ATP by ProQinase assay relative to control.
Assay [6] addresses Tyrosine-protein kinase JAK2 (Homo sapiens) (UniProt O60674). Description: Inhibition of human JAK2 assessed as residual activity at 1 uM using poly(Ala,Glu,Lys,Tyr)6:2:5:1 as substrate in presence of 33P-ATP by ProQinase assay relative to control.
Assay [7] deals with Activin receptor type-2B (Homo sapiens) (UniProt Q13705). The assay can be described thus: Inhibition of ACVR2B (unknown origin) assessed as remaining activity at 1 uM by Kinome scan method relative to control.
For assay [8], the system named is Phosphatidylinositol 4,5-bisphosphate 3-kinase catalytic subunit alpha isoform (Homo sapiens), P42336 [H1047Y]. Description: Inhibition of PIK3CA H1047Y mutant (unknown origin) assessed as remaining activity at 1 uM by Kinome scan method relative to control.
Sequence of Phosphatidylinositol 4,5-bisphosphate 3-kinase catalytic subunit alpha isoform (Homo sapiens), P42336 [H1047Y] (P42336 whole entry H1047Y, canonical isoform): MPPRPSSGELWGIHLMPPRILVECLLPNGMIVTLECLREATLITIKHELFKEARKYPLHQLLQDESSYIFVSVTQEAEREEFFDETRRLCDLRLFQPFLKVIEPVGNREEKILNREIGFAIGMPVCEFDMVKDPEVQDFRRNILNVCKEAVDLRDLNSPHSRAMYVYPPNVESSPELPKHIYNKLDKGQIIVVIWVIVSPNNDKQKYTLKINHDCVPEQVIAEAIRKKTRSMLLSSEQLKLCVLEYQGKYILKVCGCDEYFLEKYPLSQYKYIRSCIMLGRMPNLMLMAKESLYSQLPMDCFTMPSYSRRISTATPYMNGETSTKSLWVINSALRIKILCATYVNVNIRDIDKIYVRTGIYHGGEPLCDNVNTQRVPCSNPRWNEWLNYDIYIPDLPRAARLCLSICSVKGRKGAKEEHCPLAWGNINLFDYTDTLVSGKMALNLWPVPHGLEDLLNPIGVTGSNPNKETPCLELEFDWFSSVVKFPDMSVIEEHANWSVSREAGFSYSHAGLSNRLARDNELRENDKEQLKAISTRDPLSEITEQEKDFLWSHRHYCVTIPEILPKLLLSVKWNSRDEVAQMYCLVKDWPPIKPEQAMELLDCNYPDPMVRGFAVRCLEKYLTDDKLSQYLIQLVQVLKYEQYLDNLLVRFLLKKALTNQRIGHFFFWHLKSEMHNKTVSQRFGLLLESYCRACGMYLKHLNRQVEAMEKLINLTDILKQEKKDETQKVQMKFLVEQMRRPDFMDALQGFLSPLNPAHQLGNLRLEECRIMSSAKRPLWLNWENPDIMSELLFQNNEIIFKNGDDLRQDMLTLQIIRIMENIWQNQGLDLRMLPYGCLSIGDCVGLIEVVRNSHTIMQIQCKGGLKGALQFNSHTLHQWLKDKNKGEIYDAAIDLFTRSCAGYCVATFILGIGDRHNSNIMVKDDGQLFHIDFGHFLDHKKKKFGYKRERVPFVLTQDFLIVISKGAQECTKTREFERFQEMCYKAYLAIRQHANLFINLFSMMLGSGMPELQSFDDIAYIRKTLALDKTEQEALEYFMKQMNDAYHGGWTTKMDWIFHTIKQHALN
Assay [9] addresses Casein kinase I isoform gamma-3 (Homo sapiens) (UniProt Q9Y6M4). Description: Inhibition of CSNK1G3 (unknown origin) assessed as remaining activity at 1 uM by Kinome scan method relative to control.
The target in assay [10] is CDK9/cyclin T1 (Homo sapiens) (UniProt O60563+P50750). Description: Inhibition of human CDK9/CyclinT1 assessed as residual activity at 1 uM using RBER-CHKtide as substrate in presence of 33P-ATP by ProQinase assay relative to control. It is filed as protein-complex assay.
The target in assay [11] is Tyrosine-protein kinase Fes/Fps (Homo sapiens) (UniProt P07332). The assay can be described thus: Inhibition of human FES assessed as residual activity at 1 uM using polyEY as substrate in presence of 33P-ATP by ProQinase assay relative to control.
In assay [12] the target is Serine/threonine-protein kinase 33 (Homo sapiens) (UniProt Q9BYT3). The assay can be described thus: Inhibition of human STK33 assessed as residual activity at 1 uM using RBER-CHKtide as substrate in presence of 33P-ATP by ProQinase assay relative to control.
Sequence of Serine/threonine-protein kinase 33 (Homo sapiens) (Q9BYT3 whole entry, looked up): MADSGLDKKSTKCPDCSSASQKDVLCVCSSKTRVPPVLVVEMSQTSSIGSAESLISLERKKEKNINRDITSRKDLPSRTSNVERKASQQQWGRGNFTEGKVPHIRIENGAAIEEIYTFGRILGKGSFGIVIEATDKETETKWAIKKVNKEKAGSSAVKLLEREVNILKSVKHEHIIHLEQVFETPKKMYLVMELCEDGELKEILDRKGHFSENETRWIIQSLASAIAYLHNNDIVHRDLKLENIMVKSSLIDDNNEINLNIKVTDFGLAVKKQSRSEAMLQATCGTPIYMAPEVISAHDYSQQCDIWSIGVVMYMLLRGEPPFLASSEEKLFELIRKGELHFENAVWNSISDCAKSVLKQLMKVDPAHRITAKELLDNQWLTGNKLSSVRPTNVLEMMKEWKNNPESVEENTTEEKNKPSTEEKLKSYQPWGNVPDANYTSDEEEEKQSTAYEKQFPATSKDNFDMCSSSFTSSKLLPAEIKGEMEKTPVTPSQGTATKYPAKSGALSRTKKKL
Assay [13] has as its target MAP kinase p38 (Homo sapiens) (UniProt O15264+Q15759+Q16539+P53778). Description: Inhibition of p38-MAPK in human HeLa cells assessed as reduction in HSP27 phosphorylation at Ser82 level at 50 nM incubated for 2 hrs in the presence of anisomycin stimulation for 40 mins by western blot analysis. The format is cell-based. (In general: A western blot detects proteins with antibodies after separation by electrophoresis.)

The target in assay [14] is Mitogen-activated protein kinase kinase kinase 10 (Homo sapiens) (UniProt Q02779). Description: Inhibition of human MAP3K10 assessed as residual activity at 1 uM using histon H2B as substrate in presence of 33P-ATP by ProQinase assay relative to control.
Assay [15] concerns the target Death-associated protein kinase 3 (Homo sapiens) (UniProt O43293). The assay can be described thus: Inhibition of DAPK3 (unknown origin) assessed as remaining activity at 1 uM by Kinome scan method relative to control.
The target of assay [16] is Eukaryotic elongation factor 2 kinase (Homo sapiens) (UniProt O00418). Description: Inhibition of human EEF2K assessed as residual activity at 1 uM using RBER-GSK3 as substrate in presence of 33P-ATP by ProQinase assay relative to control.
For assay [17], the target named is Protein kinase C zeta type (Homo sapiens) (UniProt Q05513). The assay can be described thus: Inhibition of human PKCzeta assessed as residual activity at 1 uM using 3xChocktide-PKC(19-31) as substrate in presence of 33P-ATP by ProQinase assay relative to control.
Sequence of Protein kinase C zeta type (Homo sapiens) (Q05513 whole entry): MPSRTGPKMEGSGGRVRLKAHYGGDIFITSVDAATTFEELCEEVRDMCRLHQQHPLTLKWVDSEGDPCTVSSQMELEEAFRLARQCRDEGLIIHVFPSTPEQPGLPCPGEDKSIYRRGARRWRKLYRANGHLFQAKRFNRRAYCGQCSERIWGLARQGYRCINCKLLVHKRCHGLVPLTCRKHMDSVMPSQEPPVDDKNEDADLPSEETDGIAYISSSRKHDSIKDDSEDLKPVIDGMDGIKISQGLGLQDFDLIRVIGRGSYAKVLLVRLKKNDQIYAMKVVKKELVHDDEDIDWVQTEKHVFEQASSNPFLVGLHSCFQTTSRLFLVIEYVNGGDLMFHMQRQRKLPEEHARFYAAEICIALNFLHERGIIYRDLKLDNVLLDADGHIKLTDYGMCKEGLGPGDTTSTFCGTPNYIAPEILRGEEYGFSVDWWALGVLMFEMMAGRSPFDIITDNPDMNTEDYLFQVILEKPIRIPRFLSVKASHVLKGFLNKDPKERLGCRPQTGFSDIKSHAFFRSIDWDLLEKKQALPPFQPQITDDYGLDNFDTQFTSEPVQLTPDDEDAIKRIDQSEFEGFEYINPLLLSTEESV
Assay [18] has as its system Epidermal growth factor receptor (Homo sapiens), P00533 [UNDEFINED MUTATION]. Description: Inhibition of EGFR L747-T751del/Sins mutant (unknown origin) assessed as remaining activity at 1 uM by Kinome scan method relative to control.
The target of assay [19] is Protein kinase C gamma type (Homo sapiens) (UniProt P05129). Description: Inhibition of human PKCgamma assessed as residual activity at 1 uM using 3xChocktide-PKC(19-31) as substrate in presence of 33P-ATP by ProQinase assay relative to control.
The target in assay [20] is T1, Homeodomain-interacting protein kinase 4 (Homo sapiens) (UniProt Q8NE63).
T1 sequence (whole entry): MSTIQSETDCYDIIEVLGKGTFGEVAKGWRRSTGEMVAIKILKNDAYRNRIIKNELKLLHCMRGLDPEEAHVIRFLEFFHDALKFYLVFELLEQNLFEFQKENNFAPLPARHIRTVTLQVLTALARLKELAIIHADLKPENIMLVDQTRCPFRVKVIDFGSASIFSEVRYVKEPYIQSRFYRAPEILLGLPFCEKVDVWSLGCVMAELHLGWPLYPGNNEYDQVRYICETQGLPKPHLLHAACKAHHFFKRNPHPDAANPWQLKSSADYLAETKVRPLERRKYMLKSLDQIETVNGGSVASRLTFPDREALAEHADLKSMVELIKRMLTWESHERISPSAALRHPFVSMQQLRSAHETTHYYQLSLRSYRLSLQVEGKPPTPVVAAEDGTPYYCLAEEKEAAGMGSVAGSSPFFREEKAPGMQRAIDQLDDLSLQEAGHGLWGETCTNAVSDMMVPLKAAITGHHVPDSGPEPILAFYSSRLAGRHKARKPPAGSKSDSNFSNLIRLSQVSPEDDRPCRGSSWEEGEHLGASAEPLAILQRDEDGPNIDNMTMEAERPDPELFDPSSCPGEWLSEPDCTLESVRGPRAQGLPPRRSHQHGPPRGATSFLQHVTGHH
Description: Inhibition of human HIPK4 assessed as residual activity at 1 uM using RBER-IRStide as substrate in presence of 33P-ATP by ProQinase assay relative to control.

The target of assay [21] is Myosin-IIIa (Homo sapiens) (UniProt Q8NEV4). Description: Inhibition of MYO3A (unknown origin) assessed as remaining activity at 1 uM by Kinome scan method relative to control.
Sequence of Myosin-IIIa (Homo sapiens) (Q8NEV4 whole entry): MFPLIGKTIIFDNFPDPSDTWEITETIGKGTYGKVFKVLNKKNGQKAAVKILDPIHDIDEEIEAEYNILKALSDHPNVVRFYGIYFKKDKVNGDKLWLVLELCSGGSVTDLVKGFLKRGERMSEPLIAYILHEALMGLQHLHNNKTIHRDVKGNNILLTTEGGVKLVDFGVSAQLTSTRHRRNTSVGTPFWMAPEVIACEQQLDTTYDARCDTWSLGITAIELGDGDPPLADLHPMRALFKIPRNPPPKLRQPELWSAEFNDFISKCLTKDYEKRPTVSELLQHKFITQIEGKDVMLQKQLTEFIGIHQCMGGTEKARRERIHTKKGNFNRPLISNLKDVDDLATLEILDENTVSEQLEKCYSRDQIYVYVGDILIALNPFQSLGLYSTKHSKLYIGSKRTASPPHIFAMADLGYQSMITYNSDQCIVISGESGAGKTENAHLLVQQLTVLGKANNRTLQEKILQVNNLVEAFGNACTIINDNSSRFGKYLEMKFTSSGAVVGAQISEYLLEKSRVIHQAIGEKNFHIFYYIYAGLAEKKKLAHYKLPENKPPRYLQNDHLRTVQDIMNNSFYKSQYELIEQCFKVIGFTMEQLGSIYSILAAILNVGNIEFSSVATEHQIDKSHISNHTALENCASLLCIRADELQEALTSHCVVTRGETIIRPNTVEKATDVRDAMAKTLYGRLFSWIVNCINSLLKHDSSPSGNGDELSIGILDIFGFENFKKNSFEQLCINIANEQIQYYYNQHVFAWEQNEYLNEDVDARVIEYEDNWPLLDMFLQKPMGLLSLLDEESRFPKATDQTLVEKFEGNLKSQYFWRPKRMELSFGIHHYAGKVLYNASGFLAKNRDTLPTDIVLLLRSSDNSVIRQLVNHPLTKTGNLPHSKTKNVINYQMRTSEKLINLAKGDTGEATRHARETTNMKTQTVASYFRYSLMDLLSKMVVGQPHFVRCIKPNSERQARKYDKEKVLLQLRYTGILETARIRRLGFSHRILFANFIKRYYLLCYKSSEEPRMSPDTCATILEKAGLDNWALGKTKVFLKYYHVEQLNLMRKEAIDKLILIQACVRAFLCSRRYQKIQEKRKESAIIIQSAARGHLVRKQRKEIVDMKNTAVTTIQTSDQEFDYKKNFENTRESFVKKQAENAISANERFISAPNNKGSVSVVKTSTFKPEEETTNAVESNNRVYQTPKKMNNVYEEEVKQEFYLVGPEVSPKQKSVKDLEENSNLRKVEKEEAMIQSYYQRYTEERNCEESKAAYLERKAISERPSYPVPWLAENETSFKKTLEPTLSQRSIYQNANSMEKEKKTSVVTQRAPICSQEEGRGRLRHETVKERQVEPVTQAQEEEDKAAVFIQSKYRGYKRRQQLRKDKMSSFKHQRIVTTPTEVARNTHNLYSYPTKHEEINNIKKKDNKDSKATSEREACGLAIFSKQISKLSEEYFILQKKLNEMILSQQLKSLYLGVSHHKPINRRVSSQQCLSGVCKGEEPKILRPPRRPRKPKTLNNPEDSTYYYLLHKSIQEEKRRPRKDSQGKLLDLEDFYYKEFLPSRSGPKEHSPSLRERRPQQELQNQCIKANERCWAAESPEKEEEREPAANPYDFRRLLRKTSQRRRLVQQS
Assay [22] deals with Mitogen-activated protein kinase 6 (Homo sapiens) (UniProt Q16659). The assay can be described thus: Inhibition of ERK3 (unknown origin) assessed as remaining activity at 1 uM by Kinome scan method relative to control.

Active and inactive are the calls of the source. The calls are words filed in the database; no cut-off is given here.

Sequence of Casein kinase I isoform gamma-3 (Homo sapiens) (Q9Y6M4 whole entry, looked up, canonical isoform): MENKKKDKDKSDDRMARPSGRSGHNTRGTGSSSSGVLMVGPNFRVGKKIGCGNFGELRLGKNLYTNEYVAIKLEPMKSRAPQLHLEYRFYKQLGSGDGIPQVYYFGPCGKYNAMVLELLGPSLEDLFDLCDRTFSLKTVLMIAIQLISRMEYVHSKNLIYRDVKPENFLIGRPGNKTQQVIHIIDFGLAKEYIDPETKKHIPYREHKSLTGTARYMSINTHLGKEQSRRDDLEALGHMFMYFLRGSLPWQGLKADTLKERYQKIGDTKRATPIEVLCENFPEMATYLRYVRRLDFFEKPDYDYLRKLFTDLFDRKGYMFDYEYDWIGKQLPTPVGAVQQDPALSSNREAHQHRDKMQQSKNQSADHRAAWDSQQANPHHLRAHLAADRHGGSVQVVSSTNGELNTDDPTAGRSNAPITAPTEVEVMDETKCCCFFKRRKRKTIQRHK

With `O=C1c2ccc(Nc3ccc(F)cc3F)cc2CCc2ccc(OC[C@H](O)CO)cc21` [Skepinone-L], the Activity in [1] stood at 99%; in assay [2], 100%; in assay [3], 100%; in [4], 99%; in assay [5], 96%; in assay [6] it was 90%. For the same molecule, the Activity amounted to 83% in [7]; 100% in assay [8]; 100% in [9]; 103% in assay [10]; 121% in assay [11]; 94% in [12]. In addition, the Activity in assay [14] came to 101%; in assay [15], 100%; in [16], 88%; in [17], 109%; in assay [18] it was 98%; in assay [19] it was 99%. Moreover, the Activity in assay [20] came out at 116%; in assay [21] it was 89%; in [22], 100%. Further, in assay [13], the inhibition result was “Active”.
